Test results as given in the SangsterLogP compilation.

Assay: method code SF, from DOI: 10.1021/js960111p, PMID: 9002468
Details: for logD: pH 12.0

COc1ccc2[nH]ccc2c1
logP: 2.08

COc1ccc2[nH]c3c(c2c1)CCNC3C (stereo not drawn)
logD: 1.15

Oc1ccc2[nH]ccc2c1
logP: 1.29

Cn1ccc2ccccc21
logP: 2.55

CC1NCCc2c1[nH]c1ccc(Cl)cc21 (stereo not drawn)
logD: 2.3

Clc1ccc2[nH]ccc2c1
logP: 2.93

Cc1ccc2[nH]ccc2c1
logP: 2.67

c1ccc2c(c1)[nH]c1cnccc12
logD: 2.65

CC1NCCc2c1[nH]c1ccccc21 (stereo not drawn)
logD: 2.06

Cn1c2ccccc2c2ccccc21
logD: 3.99

NCCc1c[nH]c2ccccc12
logD: 1.35

c1ccc2c3c([nH]c2c1)CNCC3
logD: 1.98

Cc1nccc2c3ccccc3n(C)c12
logD: 3.01

c1ccc2c3c([nH]c2c1)CCCC3
logP: 3

Cc1ccc2[nH]c(C)cc2c1
logP: 3.02

CC1NCCc2c1[nH]c1ccc([N+](=O)[O-])cc21 (stereo not drawn)
logD: 2.07

Cc1nccc2c1[nH]c1ccccc12
logD: 2.89

COc1ccc2c3c([nH]c2c1)C(C)NCC3 (stereo not drawn)
logD: 1.37
